Laboratory results reported in patent US20250074908A1, “SALT OF ROCK INHIBITOR, CRYSTAL FORM OF SALT, COMPOSITION, AND PHARMACEUTICAL USE” (WUHAN CREATERNA SCIENCE AND TECHNOLOGY CO., LTD., priority 2022, published 2025).
≈ marks a conversion by molar mass, not a printed value.

Tests used:
[1] = Chemical stability on storage up to 3 months (HPLC purity), Table 13-4; assay type: physicochemical; conditions: for stability in chemical properties: 40° C./75% humidity (sealed and protected from light); for Purity (%), 230 nm, Day 13: 40° C./75% humidity, sealed and protected from light
Description: B) The HPLC method used for the stability study was as follows:
The vials were sealed with tin foil and then separately placed under the conditions of 40° C. temperature/75% humidity or 25° C. temperature/60% humidity for about 3 months. The samples after being placed for 0 months, 2 weeks, 1 month and 3 months were taken and each dissolved in a diluent to prepare a solution at about 1.0 mg/mL, which was then tested for chemical stability by HPLC analysis using Shimadzu LC-20ADxr.

[2] = Hygroscopicity test (dynamic vapor sorption, DVS); assay type: physicochemical; conditions: for weight gain (DVS): 25° C.; for hygroscopicity: DVS
Description: The instrument used for dynamic vapor sorption analysis was Vsorp (ProUmid GmbH & Co. KG, Germany). Each sample was subjected to vapor sorption/desorption tests using the Vsorp vapor sorption analyzer (ProUmid GmbH & Co. KG, Germany). The sample was placed in a tared sample tray, and the change in the sample mass with humidity (0-90% RH) at 25° C. was recorded.

[3] = Solubility in biological media and purified water at 37° C. (tartrate, ethanesulfonate, 2-hydroxyethanesulfonate, sulfate); assay type: physicochemical
Description: (§1) A) The HPLC method used for the solubility test was as follows:
The centrifuge tubes were shaken on a constant temperature incubator shaker (at a temperature of 37° C., with a shaking frequency of 100 times/min).

[4] = Solid-state stability test (HPLC purity and XRPD), Table 13-3; assay type: physicochemical
Description: B) The HPLC method used for the stability test was as follows:
The samples after being placed for 0 days, 1 week, 2 weeks and 30 days were taken and each dissolved in a diluent to prepare a solution at about 1.0 mg/mL, which was then tested for chemical stability by HPLC analysis using Agilent HPLC 1260 series. The solid samples after being placed for 2 weeks and 30 days were tested for physical stability by XRPD analysis.

[5] = Solubility in biologically relevant media at 37° C. (free base crystal form I, crystal form III of maleate); assay type: physicochemical; conditions: for pH 24 h: filtrate
Description: as §1
15 mg of each sample was weighed and dispersed in 3.0 mL of biologically relevant medium. The dispersion was shaken on a shaker at a rotation speed of 800 rpm at 37° C. 1 mL of the dispersion was taken at 0.5 h, 2 h, and 24 h, and filtered. The filtrate was tested for solubility by Agilent HPLC 1260 series and for pH value by a pH meter. The filter cake was characterized for the crystal form by XRPD.

[6] = Pharmacokinetic study in rats; assay type: in vivo, SD rats
Description: Compound I, 2-hydroxyethanesulfonate of compound I, ethanesulfonate (crystal form I) of compound I, tartrate of compound I, and sulfate of compound I were each accurately weighed, and the required volume of vehicle was added. The mixture was stirred for 5 min, then sonicated below 25° C. until no large particles were visible to the naked eye, and further stirred for 30 min until a homogeneous suspension was obtained. The suspension was then used for administration.
Male SPF-grade SD rats (Beijing Vital River Laboratory Animal Technology Co., Ltd.) were given compound I, the 2-hydroxyethanesulfonate of compound I, the ethanesulfonate of compound I (crystal form I), the tartrate of compound I, and the sulfate of compound I by single intragastric administration after an acclimation period (with free access to water and food). Blood was collected from the orbital venous plexus of the rats at 0.167 h, 0.5 h, 1 h, 2 h, 3 h, 4 h, 6 h, 9 h, 12 h, and 24 h after administration. Each blood sample was centrifuged at 3500×g for 10 min at 4° C. The supernatant was then collected, and the concentration of compound I in the plasma was measured by LC-MS/MS (AB Sciex TRIPLE QUAD 3500). The data were analyzed using a non-compartmental model in WinNonlin (version 5.2.1 Pharsight, Mountain View, CA) to obtain PK parameters.

[7] = filter cake after 24 h in FaSSIF
[8] = filter cake after 24 h in FeSSIF
[9] = 60° C./sealed, 60° C./sealed/N2, 40° C./75% RH (open), RT/sealed for 2 weeks
[10] = simulated gastric fluid, thermodynamic from solid, SGF, 37° C.
[11] = male SD rats, single intragastric administration, 10 mg/kg (calculated as compound I), 10 mL/kg, suspension in 0.5% CMC-Na aqueous solution, plasma concentration of compound I

Cn1c(C(=O)N2CC(F)(F)C2)cc2c1CN(c1ncc(F)c(Nc3ccc(-c4cn[nH]c4)cc3)n1)CC2.O=S(=O)(O)CCO
stability in chemical properties [1]: substantially stable | Purity (%), 230 nm, Day 13 [1]: 98.7% | Purity (%), 230 nm, Day 0 [1]: 98.76%

CCS(=O)(=O)O.Cn1c(C(=O)N2CC(F)(F)C2)cc2c1CN(c1ncc(F)c(Nc3ccc(-c4cn[nH]c4)cc3)n1)CC2 [Crystal form I of ethanesulfonate]
XRPD spectra before and after the DVS test [2]: crystal form remained unchanged | weight gain (DVS) ([2]; 0.0% RH to 80% RH): about 0.3% | hygroscopicity [2]: slightly hygroscopic | solubility in SGF in the first 4 h [3]: around 100 μg/mL | stability in physical and chemical properties ([4]; 40° C./75% RH (open) and 60° C./sealed): substantially stable | Purity (%), 230 nm, 40° C./75% RH (open) Day 30 ([4]; 40° C./75% RH (open), Day 30): 99.48% | Purity (%), 230 nm, 40° C./75% RH (open) Week 2 ([4]; 40° C./75% RH (open)): 99.49% | Purity (%), 230 nm, 60° C./sealed Day 30 ([4]; 60° C./sealed, Day 30): 99.49% | Purity (%), 230 nm, 60° C./sealed Week 2 ([4]; 60° C./sealed): 99.50% | Purity (%), 230 nm, Day 0 [4]: 99.48% | stability in chemical properties [1]: substantially stable | Purity (%), 230 nm, Day 13 [1]: 98.69% | Purity (%), 230 nm, Day 0 [1]: 98.68%

Cn1c(C(=O)N2CC(F)(F)C2)cc2c1CN(c1ncc(F)c(Nc3ccc(-c4cn[nH]c4)cc3)n1)CC2.O=C(O)/C=C\C(=O)O [Crystal form III of maleate]
XRPD spectra before and after the DVS test [2]: crystal form remained unchanged | weight gain (DVS) ([2]; 0.0% RH to 80% RH): 0.29% | weight gain (DVS) ([2]; 0.0% RH to 90% RH): 0.37% | hygroscopicity [2]: slightly hygroscopic | Solubility 0.5 h ([5]; FaSSIF, 37° C.): 0.14 µg/mL | Solubility 24 h ([5]; FaSSIF, 37° C.): 1.11 µg/mL | Solubility 0.5 h ([5]; FeSSIF, 37° C.): 0.74 µg/mL | Solubility 2 h ([5]; FeSSIF, 37° C.): 2.47 µg/mL | Solubility 24 h ([5]; FeSSIF, 37° C.): 3.90 µg/mL | Solubility 2 h ([5]; SGF, 37° C.): 2.18 µg/mL | Solubility 24 h ([5]; SGF, 37° C.): 6.45 µg/mL | XRPD (24 h) [5, 7]: underwent a crystal form transformation | XRPD (24 h) [5, 8]: underwent a crystal form transformation | XRPD (24 h) ([5]; filter cake after 24 h in SGF): underwent a crystal form transformation | pH 24 h ([5]; FaSSIF): 5.33 | pH 24 h ([5]; FeSSIF): 4.90 | pH 24 h ([5]; SGF): 1.29 | Purity (%), 230 nm, 40° C./75% RH (open) Week 1 ([4]; 40° C./75% RH (open)): 98.00% | Purity (%), 230 nm, 40° C./75% RH (open) Week 2 ([4]; 40° C./75% RH (open)): 97.92% | stability in physical and chemical properties [4, 9]: slight degradation | Purity (%), 230 nm, 60° C./sealed Week 1 ([4]; 60° C./sealed): 97.96% | Purity (%), 230 nm, 60° C./sealed Week 2 ([4]; 60° C./sealed): 97.85% | Purity (%), 230 nm, 60° C./sealed/N2 Week 1 [4]: 97.95% | Purity (%), 230 nm, 60° C./sealed/N2 Week 2 [4]: 97.97% | Purity (%), 230 nm, Day 0 [4]: 98.11% | Purity (%), 230 nm, RT/sealed Week 2 [4]: 98.02%

Cn1c(C(=O)N2CC(F)(F)C2)cc2c1CN(c1ncc(F)c(Nc3ccc(-c4cn[nH]c4)cc3)n1)CC2 [Free base crystal form I]
XRPD spectra before and after the DVS test [2]: crystal form remained unchanged | weight gain (DVS) ([2]; 0.0% RH to 80% RH): 0.30% | weight gain (DVS) ([2]; 0.0% RH to 90% RH): 0.46% | hygroscopicity [2]: slightly hygroscopic | solubility ([5]; fassgf or other biorelevant, thermodynamic from solid, SGF, FaSSIF and FeSSIF, 37° C., read-out: solubility in the three biologically relevant media): < 50 µg/mL | XRPD (24 h) [5, 7]: remained unchanged | XRPD (24 h) [5, 8]: remained unchanged | XRPD (24 h) ([5]; filter cake after 24 h in SGF): underwent a crystal form transformation | pH 24 h ([5]; FaSSIF): 6.53 | pH 24 h ([5]; FeSSIF): 5.02 | pH 24 h ([5]; SGF): 1.30 | solubility at 24 h ([5]; pH 1.3, simulated gastric fluid, thermodynamic from solid, SGF, 37° C.): 8.57 µg/mL (≈ 16.9 µM) | solubility at 24 h ([5]; pH 5.02, thermodynamic from solid, FeSSIF, 37° C.): 3.35 µg/mL (≈ 6.59 µM) | solubility at 24 h ([5]; pH 6.53, thermodynamic from solid, FaSSIF, 37° C.): 0.39 µg/mL (≈ 0.767 µM) | solubility at 0.5 h [5, 10]: 11.5 µg/mL (≈ 22.6 µM) | solubility at 2 h [5, 10]: 6.69 µg/mL (≈ 13.2 µM) | solubility at 0.5 h ([5]; thermodynamic from solid, FaSSIF, 37° C.): 0.29 µg/mL (≈ 0.57 µM) | solubility at 2 h ([5]; thermodynamic from solid, FeSSIF, 37° C.): 1.79 µg/mL (≈ 3.52 µM) | Purity (%), 230 nm, 40° C./75% RH (open) Week 1 ([4]; 40° C./75% RH (open)): 97.82% | Purity (%), 230 nm, 40° C./75% RH (open) Week 2 ([4]; 40° C./75% RH (open)): 97.88% | stability in physical and chemical properties [4, 9]: substantially stable | Purity (%), 230 nm, 60° C./sealed Week 1 ([4]; 60° C./sealed): 97.82% | Purity (%), 230 nm, 60° C./sealed Week 2 ([4]; 60° C./sealed): 97.85% | Purity (%), 230 nm, 60° C./sealed/N2 Week 1 [4]: 97.83% | Purity (%), 230 nm, 60° C./sealed/N2 Week 2 [4]: 97.84% | Purity (%), 230 nm, Day 0 [4]: 97.90% | Purity (%), 230 nm, RT/sealed Week 2 [4]: 97.93%

O=S(=O)(O)CCO [Sample 2-Hydroxyethanesulfonate, 2-Hydroxyethanesulfonate]
AUClast [6, 11]: 9449 ng·h/mL | Cmax [6, 11]: 827 ng/mL

O=S(=O)(O)O [Sulfate]
AUClast ([6]; rat, in vivo, po, 10 mg/kg): 13429 ng·h/mL
